This note sets out measurements from ChEMBL document CHEMBL3352572, “Design, synthesis and antioxidant activity evaluation of novel β-elemene derivatives” (Bioorg Med Chem Lett, 2014).

Bounds are passed on as bounds.

The subject of data set [1] is HUVEC. The data set is described as follows: Antioxidant activity in HUVEC assessed as suppression of ROS production by measuring fluorescent intensity index at 5 uM pre-incubated for 24 hrs before H2O2 stimulation for 2 hrs by DCF dye based fluorimetric assay. The format is functional, Homo sapiens.
For data set [2], the system named is HUVEC. The data set is described as follows: Antioxidant activity in HUVEC assessed as suppression of ROS production by measuring fluorescent intensity index at 100 uM pre-incubated for 24 hrs before H2O2 stimulation for 2 hrs by DCF dye based fluorimetric assay. The class given is functional, cell-based. The note with it: Homo sapiens.
The test system of data set [3] is HUVEC. The data set is described as follows: Increase in SOD activity in H2O2-treated HUVEC at 0.5 to 50 uM pre-incubated for 24 hrs before H2O2 stimulation for 2 hrs. The format is functional, cell-based. The note with it: Homo sapiens.
A short description of data set [4]: Cytotoxicity against HUVEC assessed as cell survival at 0.5 to 50 uM after 24 hrs by MTT assay. The format is cell-based. The note with it: human, HUVEC cells; read-out: Survival.
The test system of data set [5] is HUVEC. The data set is described as follows: Antioxidant activity in HUVEC assessed as suppression of ROS production pre-incubated for 24 hrs before H2O2 stimulation for 2 hrs by DCF dye based fluorescence microscopy. The format is functional, cell-based. The note with it: Homo sapiens.
For data set [6], the system named is HUVEC. The data set is described as follows: Cytoprotective activity in H2O2-treated HUVEC assessed as cell survival at 50 uM pre-incubated for 24 hrs before H2O2 stimulation for 2 hrs by MTT assay (reference value: 66.91%). The format is functional. The note with it: Homo sapiens, read-out: Survival.
For data set [7], the system named is HUVEC. Description: Cytotoxicity against HUVEC assessed as cell death 1000 uM after 24 hrs by MTT assay. The class given is cell-based. The conditions noted are these: human. A general note: Tetrazolium dyes change colour on reduction, which living cells bring about.
Data set [8] concerns HUVEC. Description: Increase in nitric oxide secretion in H2O2-treated HUVEC at 0.5 to 50 uM pre-incubated for 24 hrs before H2O2 stimulation for 2 hrs. The format is functional, cell-based. The note with it: Homo sapiens.
Data set [9] deals with HUVEC. Description: Cytoprotective activity in H2O2-treated HUVEC assessed as reduction in H2O2-induced cell death at 0.5 to 50 uM pre-incubated for 24 hrs before H2O2 stimulation for 2 hrs by MTT assay. The class given is functional, cell-based. The note with it: Homo sapiens.
Data set [10] deals with HUVEC. The data set is described as follows: Antioxidant activity in HUVEC assessed as suppression of ROS production at 0.5 uM pre-incubated for 24 hrs before H2O2 stimulation for 2 hrs by DCF dye based fluorescence microscopy. The format is functional, cell-based. The conditions noted are these: Homo sapiens.
The subject of data set [11] is HUVEC. The data set is described as follows: Reduction in LDH release in H2O2-treated HUVEC at 0.5 to 50 uM pre-incubated for 24 hrs before H2O2 stimulation for 2 hrs. The class given is functional, cell-based. The note with it: Homo sapiens.
Data set [12] concerns HUVEC. Description: Reduction in MDA level in H2O2-treated HUVEC at 0.5 to 50 uM pre-incubated for 24 hrs before H2O2 stimulation for 2 hrs. The class given is functional, cell-based. The conditions noted are these: Homo sapiens.
The test system of data set [13] is HUVEC. The data set is described as follows: Cytoprotective activity in H2O2-treated HUVEC assessed as cell survival at 0.5 uM pre-incubated for 24 hrs before H2O2 stimulation for 2 hrs by MTT assay (reference value: 66.91%). The format is functional. The note with it: Homo sapiens, read-out: Survival.
In data set [14] the test system is HUVEC. The data set is described as follows: Antioxidant activity in HUVEC assessed as suppression of ROS production by measuring fluorescent intensity index at 10 uM pre-incubated for 24 hrs before H2O2 stimulation for 2 hrs by DCF dye based fluorimetric assay. The class given is functional, Homo sapiens.

On to `C=C[C@]1(C)CC[C@@H](C(=C)COC(=O)c2cccc(F)c2)C[C@H]1C(=C)C`, for which, in data set [1], the Flu intensity is given as 1.39. Still for that read-out and setting: for `C=C[C@]1(C)CC[C@@H](C(=C)C)C[C@H]1C(=C)COC(=O)c1ccccc1C(=O)OCC(=C)[C@@H]1C[C@H](C(=C)C)CC[C@@]1(C)C(=C)C` the value was 1.168; for `C=C[C@]1(C)CC[C@@H](C(=C)C)C[C@H]1C(=C)COC(=O)CCC(=O)O`, 1.468. Turning to `C=C[C@]1(C)CC[C@@H](C(=C)COC(=O)c2ccncc2)C[C@H]1C(=C)C`, the Flu intensity in data set [1] was 1.447.

With `C=C[C@]1(C)CC[C@@H](C(=C)COC(=O)CC)C[C@H]1C(=C)C`, the Flu intensity in [1] was 1.322. Take `C=C[C@]1(C)CC[C@@H](C(=C)C)C[C@H]1C(=C)COC(=O)c1ccccc1C(=O)O`: in [1], the Flu intensity is 1.415. With `C=C[C@]1(C)CC[C@@H](C(=C)C)C[C@H]1C(=C)COC(=O)c1ccc(Cl)cc1`, in data set [1], the Flu intensity turned out to be 1.458. Same read-out and setting: for `C=C[C@]1(C)CC[C@@H](C(=C)COC(=O)c2ccc(C)cc2)C[C@H]1C(=C)C` the value was 1.411; for `C=C[C@]1(C)CC[C@@H](C(=C)C)C[C@H]1C(=C)COC(=O)c1ccc(F)cc1`, 1.306. On to VITAMIN E, for which the Flu intensity in data set [2] was determined as 1.23. In the case of `C=C[C@]1(C)CC[C@@H](C(=C)COC(=O)c2ccccc2C(=O)O)C[C@H]1C(=C)C`, the Flu intensity in data set [1] was 1.416. With `C=C[C@]1(C)CC[C@@H](C(=C)COC(=O)CCC)C[C@H]1C(=C)C`, the Flu intensity in [1] is given as 1.365.

Take `C=C[C@]1(C)CC[C@@H](C(=C)COC(=O)c2ccc([N+](=O)[O-])cc2)C[C@H]1C(=C)C`: the Flu intensity in data set [1] is recorded as 1.304. Still for that read-out and setting: for `C=C[C@]1(C)CC[C@@H](C(=C)C)C[C@H]1C(=C)COC(C)=O` the value was 1.322; for `C=C[C@]1(C)CC[C@@H](C(=C)COC(=O)c2ccco2)C[C@H]1C(=C)C`, 1.488. Regarding `C=C[C@]1(C)CC[C@@H](C(=C)COC(=O)c2cccnc2)C[C@H]1C(=C)C`, in data set [1], the Flu intensity is 1.524. With `C=C[C@]1(C)CC[C@@H](C(=C)COC(=O)c2ccccc2Cl)C[C@H]1C(=C)C`, the Flu intensity in [1] is 1.388. Same read-out and setting: in the case of `C=C[C@]1(C)CC[C@@H](C(=C)C)C[C@H]1C(=C)COC(=O)CCC(=O)OCC(=C)[C@@H]1C[C@H](C(=C)C)CC[C@@]1(C)C(=C)C` it was 1.123.

In the case of `C=C[C@]1(C)CC[C@@H](C(=C)COC(=O)CCC(=O)OCC(=C)[C@@H]2CC[C@@](C)(C=C)[C@H](C(=C)C)C2)C[C@H]1C(=C)C`, the Activity entry in data set [3] is “Dose-dependent effect”; in data set [7], “<= 50%”; in data set [8], “Dose-dependent effect”; in data set [9] it was “Dose-dependent effect”. The viability at 24 h, up to 50 µM in data set [4] was above 92%. The inhibition result in [5], in [10], in data set [11] and in data set [12] was “Dose-dependent effect” in each case. In addition, the viability at 50 µM in [6] was found to be 100%. The Flu intensity in [1] is given as 1.092. The viability at 0.5 µM in data set [13] turned out to be 81.2%. Turning to `C=C[C@]1(C)CC[C@@H](C(=C)C)C[C@H]1C(=C)COC(=O)c1ccc(OC)cc1`, the Flu intensity in [1] worked out at 1.387. For `C=C[C@]1(C)CC[C@@H](C(=C)COC(=O)c2ccccc2O)C[C@H]1C(=C)C`, the Flu intensity in data set [1] came out at 1.286. Regarding `C=C[C@]1(C)CC[C@@H](C(=C)C)C[C@H]1C(=C)C`, the figures for the Flu intensity in data set [14] and in [1] were 1.23 and 1.281, respectively. Turning to `C=C[C@]1(C)CC[C@@H](C(=C)C)C[C@H]1C(=C)COC(=O)c1ccccc1Cl`, the Flu intensity in data set [1] is 1.443.

As for `C=C[C@]1(C)CC[C@@H](C(=C)C)C[C@H]1C(=C)COC(=O)c1ccccc1O`, the Flu intensity in [1] was 1.376. Regarding `C=C[C@]1(C)CC[C@@H](C(=C)C)C[C@H]1C(=C)COC(=O)c1cccc(F)c1`, the Flu intensity in data set [1] stood at 1.39. Take `C=C[C@]1(C)CC[C@@H](C(=C)C)C[C@H]1C(=C)COC(=O)c1ccc(C)cc1`: in data set [1], the Flu intensity was found to be 1.322. For `C=C[C@]1(C)CC[C@@H](C(=C)COC(=O)c2ccccc2)C[C@H]1C(=C)C`, the Flu intensity in data set [1] stood at 1.355. As to `C=C[C@]1(C)CC[C@@H](C(=C)CO)C[C@H]1C(=C)C`, the Flu intensity in [1] is on record as 1.291. Same read-out and setting: for `C=C[C@]1(C)CC[C@@H](C(=C)C)C[C@H]1C(=C)COC(=O)c1cccnc1` the value was 1.397.

In the case of `C=C[C@]1(C)CC[C@@H](C(=C)C)C[C@H]1C(=C)COC(=O)c1ccncc1`, the Flu intensity in data set [1] is given as 1.411. For the compound `C=C[C@]1(C)CC[C@@H](C(=C)C)C[C@H]1C(=C)COC(=O)c1ccccc1`, the Flu intensity in data set [1] was determined as 1.445. `C=C[C@]1(C)CC[C@@H](C(=C)C)C[C@H]1C(=C)CO`: the Flu intensity in data set [1] was 1.37. `C=C[C@]1(C)CC[C@@H](C(=C)C)C[C@H]1C(=C)COC(=O)c1ccc([N+](=O)[O-])cc1`: the Flu intensity in [1] was determined as 1.393. For `C=C[C@]1(C)CC[C@@H](C(=C)COC(=O)c2ccccc2C(=O)OCC(=C)[C@@H]2CC[C@@](C)(C=C)[C@H](C(=C)C)C2)C[C@H]1C(=C)C`, the Activity entry in data set [3] was “Dose-dependent effect”; in data set [7], “<= 50%”; in data set [8], “Dose-dependent effect”; in [9] it was “Dose-dependent effect”. Also, the viability at 24 h, up to 50 µM in data set [4] is above 92%. For the same compound, the inhibition entry in [5], in [10], in [11] and in data set [12] was “Dose-dependent effect” throughout. The viability at 50 µM in [6] is 97.9%. Besides, in data set [1], the Flu intensity is listed as 1.114. In the case of `C=C[C@]1(C)CC[C@@H](C(=C)COC(=O)c2ccc(F)cc2)C[C@H]1C(=C)C`, in [1], the Flu intensity worked out at 1.417. Regarding `C=C[C@]1(C)CC[C@@H](C(=C)C)C[C@H]1C(=C)COC(=O)CC`, the Flu intensity in [1] was found to be 1.383. In the case of `C=C[C@]1(C)CC[C@@H](C(=C)COC(=O)c2ccc(OC)cc2)C[C@H]1C(=C)C`, in [1], the Flu intensity was 1.429.

With `C=C[C@]1(C)CC[C@@H](C(=C)C)C[C@H]1C(=C)COC(=O)CCC`, the Flu intensity in data set [1] turned out to be 1.338. As for `C=C[C@]1(C)CC[C@@H](C(=C)C)C[C@H]1C(=C)COC(=O)c1ccco1`, the Flu intensity in data set [1] is listed as 1.39. As for `C=C[C@]1(C)CC[C@@H](C(=C)COC(=O)CCC(=O)O)C[C@H]1C(=C)C`, the Flu intensity in data set [1] is 1.403. Regarding `C=C[C@]1(C)CC[C@@H](C(=C)COC(=O)c2ccc(Cl)cc2)C[C@H]1C(=C)C`, in [1], the Flu intensity was found to be 1.324. Still for that read-out and setting: for `C=C[C@]1(C)CC[C@@H](C(=C)COC(C)=O)C[C@H]1C(=C)C` the value was 1.391.
